Test results taken from patent publication US20230203043A1, “NOVEL IMIDAZOPYRAZINE DERIVATIVES” (Hoffmann-La Roche Inc., priority 2020, published 2023).
Where a name gives a salt, the structure may show the parent alone.

tested on: Acinetobacter baumannii ATCC17961; test: Antimicrobial susceptibility testing: 90% growth inhibitory concentration (IC90) determination in Iso-Sensitest broth, OD600 growth; format: cell-based; details: Acinetobacter baumannii, ATCC17961, 16 h, read-out: A. baumannii ATCC 17961 IC90 (uM), strain ATCC 17961, OD600 growth over 16 h
How it was run: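 Each strain, at about 5×10^(5) CFU/ml, was incubated with twofold dilutions of compound at 35±2° C for 16 h, and IC90 was calculated from kinetic optical density measured at 600 nm during logarithmic growth.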

| Compound | IC90 |
| --- | --- |
| CCc1cc(Nc2nccn3c(-c4c[nH]nc4C(F)(F)F)cnc23)ccc1C(=O)NCCNC(=O)[C@@H](N)CNC(=N)N [Example 213, N-[2-[[(2S)-2-amino-3-carbamimidamidopropanoyl]amino]ethyl]-2-ethyl-4-[[3-[3-(trifluoromethyl)-1H-pyrazol-4-yl]imidazo[1,2-a]pyrazin-8-yl]amino]benzamide formate] | 0.378 µM |
| CCc1cc(Nc2nccn3c(-c4c[nH]nc4C(F)(F)F)cnc23)ccc1C(=O)NCCCNC(=O)CCCN [Example 215, N-[3-(4-aminobutanoylamino)propyl]-2-ethyl-4-[[3-[3-(trifluoromethyl)-1H-pyrazol-4-yl]imidazo[1,2-a]pyrazin-8-yl]amino]benzamide formate] | 0.394 µM |
| CCc1cc(Nc2nccn3c(-c4c[nH]nc4C(F)(F)F)cnc23)ccc1C(=O)NCCNC(=O)CCCN [Example 217, N-[2-(4-aminobutanoylamino)ethyl]-2-ethyl-4-[[3-[3-(trifluoromethyl)-1H-pyrazol-4-yl]imidazo[1,2-a]pyrazin-8-yl]amino]benzamide formate] | 0.543 µM |
| CCc1cc(Nc2nccn3c(-c4c[nH]nc4C(F)(F)F)cnc23)ccc1C(=O)NCCNC(=O)NCCN [Example 218, N-[2-(2-aminoethylcarbamoylamino)ethyl]-2-ethyl-4-[[3-[3-(trifluoromethyl)-1H-pyrazol-4-yl]imidazo[1,2-a]pyrazin-8-yl]amino]benzamide formate] | 0.574 µM |
| CCc1cc(Nc2nccn3c(-c4cn(CC#N)nc4C(F)(F)F)cnc23)ccc1C(=O)N1CCC(O)(CNC)CC1 [Example 219, 2-[4-[8-[3-ethyl-4-[4-hydroxy-4-(methylaminomethyl)piperidine-1-carbonyl]anilino]imidazo[1,2-a]pyrazin-3-yl]-3-(trifluoromethyl)pyrazol-1-yl]acetonitrile formate] | 0.599 µM |
| CCc1cc(Nc2nccn3c(-c4c[nH]nc4C(F)(F)F)cnc23)ccc1C(=O)NCCNC(=O)CCN [Example 220, N-[2-(3-aminopropanoylamino)ethyl]-2-ethyl-4-[[3-[3-(trifluoromethyl)-1H-pyrazol-4-yl]imidazo[1,2-a]pyrazin-8-yl]amino]benzamide formate] | 0.51 µM |
| CCc1cc(Nc2nccn3c(-c4c[nH]nc4C(F)(F)F)cnc23)ccc1C(=O)NCCNC(=O)[C@@H](N)CCCCN [Example 221, N-[2-[[(2S)-2,6-diaminohexanoyl]amino]ethyl]-2-ethyl-4-[[3-[3-(trifluoromethyl)-1H-pyrazol-4-yl]imidazo[1,2-a]pyrazin-8-yl]amino]benzamide formate] | 0.922 µM |
| NCCNC(=O)NCCNC(=O)c1ccc(Nc2nccn3c(-c4c[nH]nc4C(F)(F)F)cnc23)cc1Cl [Example 222, N-[2-(2-aminoethylcarbamoylamino)ethyl]-2-chloro-4-[[3-[3-(trifluoromethyl)-1H-pyrazol-4-yl]imidazo[1,2-a]pyrazin-8-yl]amino]benzamide formate] | 1.09 µM |
| NCCCC[C@H](N)C(=O)NCCNC(=O)c1ccc(Nc2nccn3c(-c4c[nH]nc4C(F)(F)F)cnc23)cc1Cl [Example 224, 2-chloro-N-[2-[[(2S)-2,6-diaminohexanoyl]amino]ethyl]-4-[[3-[3-(trifluoromethyl)-1H-pyrazol-4-yl]imidazo[1,2-a]pyrazin-8-yl]amino]benzamide formate] | 1.5 µM |
| N[C@H]1C[C@H]1C(=O)N1CCN(C(=O)c2ccc(Nc3nccn4c(-c5c[nH]nc5C(F)(F)F)cnc34)cc2Cl)CC1 [Example 225, [4-[(1R,2S)-2-aminocyclopropanecarbonyl]piperazin-1-yl]-[2-chloro-4-[[3-[3-(trifluoromethyl)-1H-pyrazol-4-yl]imidazo[1,2-a]pyrazin-8-yl]amino]phenyl] methanone formate] | 1.81 µM |
| CCc1cc(Nc2nccn3c(-c4cn(CC#N)nc4C(F)(F)F)cnc23)ccc1C(=O)NOCCN [Example 228, N-(2-aminoethoxy)-4-[[3-[1-(cyanomethyl)-3-(trifluoromethyl)pyrazol-4-yl]imidazo[1,2-a]pyrazin-8-yl]amino]-2-ethylbenzamide formate] | 0.409 µM |
| CCc1cc(Nc2nccn3c(-c4c[nH]nc4C(F)(F)F)cnc23)ccc1C(=O)NCCN [Example 229, N-(2-aminoethyl)-2-ethyl-4-[[3-[3-(trifluoromethyl)-1H-pyrazol-4-yl]imidazo[1,2-a]pyrazin-8-yl]amino]benzamide formate] | 1.1 µM |
| C#CC(C)n1cc(-c2cnc3c(Nc4ccc(C(=O)NCCOCCN)c(CC)c4)nccn23)c(C(F)(F)F)n1 (centres unmarked) [Example 232, N-[2-(2-aminoethoxy)ethyl]-4-[[3-[1-but-3-yn-2-yl-3-(trifluoromethyl)pyrazol-4-yl]imidazo[1,2-a]pyrazin-8-yl]amino]-2-ethylbenzamide formate] | 0.124 µM |

same assay, conditions: Acinetobacter baumannii, ATCC17961, 16 h, strain ATCC 17961, OD600 growth over 16 h, read-out: A. baumannii ATCC 17961 IC90

| IC90 | Compound |
| --- | --- |
| 1.12 µM | CCOCCCNC(=O)c1ccc(Nc2nccn3c(-c4c[nH]nc4C(F)(F)F)cnc23)cc1CC [Example 223, N-(3-ethoxypropyl)-2-ethyl-4-[[3-[3-(trifluoromethyl)-1H-pyrazol-4-yl]imidazo[1,2-a]pyrazin-8-yl]amino]benzamide] |
| 0.088 µM | N#CCn1cc(-c2cnc3c(Nc4ccc(C(=O)N5CCNCC5)c(Cl)c4)nccn23)c(C(F)(F)F)n1 [Example 226, 2-[4-[8-[3-chloro-4-(piperazine-1-carbonyl)anilino]imidazo[1,2-a]pyrazin-3-yl]-3-(trifluoromethyl)pyrazol-1-yl]acetonitrile] |
| 0.17 µM | CCc1cc(Nc2nccn3c(-c4cn(CC#N)nc4C(F)(F)F)cnc23)ccc1C(=O)NCCCCCCN [Example 227, N-(6-aminohexyl)-4-[[3-[1-(cyanomethyl)-3-(trifluoromethyl)pyrazol-4-yl]imidazo[1,2-a]pyrazin-8-yl]amino]-2-ethylbenzamide] |
| 0.091 µM | CCNC(=O)c1ccc(Nc2nccn3c(-c4cn(CC#N)nc4C(F)(F)F)cnc23)cc1Cl [Example 230, 2-chloro-4-[[3-[1-(cyanomethyl)-3-(trifluoromethyl)pyrazol-4-yl]imidazo[1,2-a]pyrazin-8-yl]amino]-N-ethylbenzamide] |
| 0.102 µM | N#CCNC(=O)c1ccc(Nc2nccn3c(-c4cn(CC#N)nc4C(F)(F)F)cnc23)cc1Cl [Example 231, 2-chloro-N-(cyanomethyl)-4-[[3-[1-(cyanomethyl)-3-(trifluoromethyl)pyrazol-4-yl]imidazo[1,2-a]pyrazin-8-yl]amino]benzamide] |

same assay, conditions: strain ATCC 17961, OD600 growth over 16 h, read-out: A. baumannii ATCC 17961 IC90

| Compound | IC90 |
| --- | --- |
| N#CCn1cc(-c2cnc3c(Nc4ccc(C(=O)N5CCN(C(=O)NC6CNC6)CC5)c(Cl)c4)nccn23)c(C(F)(F)F)n1 [Example 214, N-(azetidin-3-yl)-4-[2-chloro-4-[[3-[1-(cyanomethyl)-3-(trifluoromethyl)pyrazol-4-yl]imidazo[1,2-a]pyrazin-8-yl]amino]benzoyl] piperazine-1-carboxamide formate] | 0.349 µM |
| N[C@@H]1CC[C@H](NC(=O)N2CCN(C(=O)c3ccc(Nc4nccn5c(-c6c[nH]nc6C(F)(F)F)cnc45)cc3Cl)CC2)C1 [Example 233, N-[(1S,3R)-3-aminocyclopentyl]-4-[2-chloro-4-[[3-[3-(trifluoromethyl)-1H-pyrazol-4-yl]imidazo[1,2-a]pyrazin-8-yl]amino]benzoyl] piperazine-1-carboxamide formate] | 0.169 µM |
